Data from patent publication US20140329682A1, “METHOD OF CONTROLLING WEED IN A SUGAR CANE FIELD” (SUMITOMO CHEMICAL COMPANY, LIMITED, priority 2011, published 2014).

Key:
Amaranthus retroflexus [1] = assay: Herbicidal activity, spray above weed before planting, azole-fungicide-treated stem cutting (Example 11); assay type: in vivo; details: sprayed above weed, 3 cm stem cutting treated with azaconazole, bitertanol or another listed azole-type fungicide planted one week after treatment, four weeks after treatment
Description: A soil is packed into a plastic pat, and seeds of Amaranthus retroflexus are seeded thereon. Thereafter, the pot is placed in a greenhouse, and the weed is grown.

Amaranthus retroflexus [2] = assay: Herbicidal activity, soil surface spray, metalaxyl-treated stem cutting (Example 12); assay type: in vivo; details: 3 cm stem cutting treated with metalaxyl or metalaxyl-M, four weeks after treatment
Description: A soil is packed into a plastic pot. Seeds of Amaranthus retroflexus are seeded thereon.

sugar cane [3] = assay: Phytotoxicity on sugar cane, soil surface spray, metalaxyl-treated stem cutting (Example 12)
Description: (§1) The “phytotoxicity” evaluated herein is the damage characteristic determined to be due to a treated compound, and is clearly discriminated from the damage characteristic caused by a harmful animal or plant disease.
(§2) A 30 cm to 40 cm stem cutting of sugar cane is placed on a wet soil, and germination is stimulated. The stem cutting from which a bud has grown to about 1 cm is selected, and the length of the stem cutting is adjusted to be 3 cm so that the stem cutting has one node. Metalaxyl or metalaxyl-M is adhered to the stem cutting. A soil is packed into a plastic pot. Seeds of Amaranthus retroflexus are seeded thereon. The stem cutting of sugar cane treated with metalaxyl or metalaxyl-M is planted in the soil packed into the pot at a depth of 2 cm. […] Thereafter, the pot for a test is placed in a greenhouse.

Amaranthus retroflexus [4] = assay: Herbicidal activity, spray above weed one week before planting (Example 5); assay type: in vivo; details: sprayed above weed three weeks after seeding, 3 cm stem cutting planted one week after treatment, four weeks after treatment
Description: A 30 cm to 40 cm stem cutting of sugar cane is placed on a wet soil, and germination is stimulated. The stem cutting from which a bud has been grown to about 1 cm is selected, and the length of the stem cutting is adjusted to be 3 cm so that the stem cutting has one node.

Amaranthus retroflexus [5] = assay: Herbicidal activity, soil surface spray, azole-fungicide-treated stem cutting (Example 10); assay type: in vivo; details: 3 cm stem cutting treated with azaconazole, bitertanol or another listed azole-type fungicide, four weeks after treatment
Description: A 30 to 40 cm stem cutting of sugar cane is placed on a wet soil, and germination is stimulated. The stem cutting from which a bud has grown to about 1 cm is selected, and the length of the stem cutting is adjusted to be 3 cm so that the stem cutting has one node. Azaconazole, bitertanol, bromoconazole, cyproconazole, difenoconazole, diniconazole, epoxyconazole, fenbuconazole, fluquinconazole, flusilazole, flutriafol, hexaconazole, imibenconazole, ipconazole, metconazole, myclobutanil, penconazole, propiconazole, prothioconazole, simeconazole, tebuconazole, tetraconazole, triadimenol, triticonazole, fenarimol, nuarimol, pyrifenox, imazalil, oxpoconazole fumarate, pefurazoate, procloraz or triflumizole is adhered to the stem cutting. A soil is packed into a plastic pot, and seeds of Amaranthus retroflexus are seeded thereon. The stem cutting of sugar cane treated with azaconazole, bitertanol, bromoconazole, cyproconazole, difenoconazole, diniconazole, epoxyconazole, fenbuconazole, fluquinconazole, flusilazole, flutriafol, hexaconazole, imibenconazole, ipconazole, metconazole, myclobutanil, penconazole, propiconazole, prothioconazole, simeconazole, tebuconazole, tetraconazole, triadimenol, triticonazole, fenarimol, nuarimol, pyrifenox, imazalil, oxpoconazole fumarate, pefurazoate, procloraz or triflumizole is planted in the soil packed into the pot at a depth of 2 cm. […] Thereafter, the pot for a test is placed in a greenhouse.

Amaranthus retroflexus [6] = assay: Herbicidal activity, spray above weed before planting, metalaxyl-treated stem cutting (Example 13); assay type: in vivo; details: sprayed above weed, 3 cm stem cutting treated with metalaxyl or metalaxyl-M planted one week after treatment, four weeks after treatment
sugar cane [7] = assay: Phytotoxicity on sugar cane, spray above weed before planting, metalaxyl-treated stem cutting (Example 13)
Description: as §1
A soil is packed into a plastic pot, and seeds of Amaranthus retroflexus are seeded thereon. Thereafter, a pot is placed in a greenhouse, and the weed is grown.
(§3) A 30 cm to 40 cm stem cutting of sugar cane is placed on a wet soil, and germination is stimulated. The stem cutting from which a bud has grown to about 1 cm is selected, and the length of the stem cutting is adjusted to be 3 cm so that the stem cutting has one node. Metalaxyl or metalaxyl-M is adhered to the stem cutting.
(§4) The pot for a test is placed in a greenhouse.

sugar cane [8] = assay: Phytotoxicity on sugar cane, spray above weed before planting, strobilurin-treated stem cutting (Example 9)
Description: as §1
(§5) A soil is packed into a plastic pot, and seeds of Amaranthus retroflexus are seeded thereon. Thereafter, the pot is placed in a greenhouse, and the weed is grown.
as §3, with “Kresoxim-methyl, azoxystrobin, trifloxystrobin, fluoxastrobin, picoxystrobin, pyraclostrobin, dimoxystrobin, pyribencarb, metominostrobin, orysastrobin, enestrobin, pyraoxystrobin” for “Metalaxyl”, “pyrametostrobin” for “metalaxyl-M”
as §4

sugar cane [9] = assay: Phytotoxicity on sugar cane, spray above weed before planting, insecticide-treated stem cutting (Example 7)
Description: as §1, §5
as §3, with “Clothianidin, thiamethoxiam, imidacloprid, dinotefuran, nitenpyram, acetamiprid” for “Metalaxyl”, “thiacloprid” for “metalaxyl-M”
as §4

sugar cane [10] = assay: Phytotoxicity on sugar cane, soil surface spray, strobilurin-treated stem cutting (Example 8)
Description: as §1
as §2, with “Kresoxim-methyl, azoxystrobin, trifloxystrobin, fluoxastrobin, picoxystrobin, pyraclostrobin, dimoxystrobin, pyribencarb, metominostrobin, orysastrobin, enestrobin, pyraoxystrobin” for “Metalaxyl”, “pyrametostrobin” for “metalaxyl-M”, “pot, and seeds” for “pot. Seeds”, “kresoxim-methyl, azoxystrobin, trifloxystrobin, fluoxastrobin, picoxystrobin, pyraclostrobin, dimoxystrobin, pyribencarb, metominostrobin, orysastrobin, enestrobin, pyraoxystrobin” for “metalaxyl”

sugar cane [11] = assay: Phytotoxicity on sugar cane, soil surface spray, insecticide-treated stem cutting (Example 6)
Description: as §1
as §2, with “Clothianidin, thiamethoxiam, imidacloprid, dinotefuran, nitenpyram, acetamiprid” for “Metalaxyl”, “thiacloprid” for “metalaxyl-M”, “pot, and seeds” for “pot. Seeds”, “clothianidin, thiamethoxiam, imidacloprid, dinotefuran, nitenpyram, acetamiprid” for “metalaxyl”

Amaranthus retroflexus [12] = assay: Herbicidal activity, spray above weed before planting, strobilurin-treated stem cutting (Example 9); assay type: in vivo; details: sprayed above weed, 3 cm stem cutting treated with kresoxim-methyl, azoxystrobin or another listed strobilurin fungicide planted one week after treatment, four weeks after treatment
Description: A 30 cm to 40 cm stem cutting of sugar cane is placed on a wet soil, and germination is stimulated. The stem cutting from which a bud has grown to about 1 cm is selected, and the length of the stem cutting is adjusted to be 3 cm so that the stem cutting has one node. Kresoxim-methyl, azoxystrobin, trifloxystrobin, fluoxastrobin, picoxystrobin, pyraclostrobin, dimoxystrobin, pyribencarb, metominostrobin, orysastrobin, enestrobin, pyraoxystrobin or pyrametostrobin is adhered to the stem cutting.

[13] = Example 12, 3 cm stem cutting treated with metalaxyl or metalaxyl-M, soil surface spray, four weeks after treatment
[14] = Example 13, sprayed above weed, 3 cm stem cutting treated with metalaxyl or metalaxyl-M planted one week after treatment, four weeks after treatment
[15] = Example 9, sprayed above weed, 3 cm stem cutting treated with kresoxim-methyl, azoxystrobin or another listed strobilurin fungicide planted one week after treatment, four weeks after treatment
[16] = Example 7, sprayed above weed, 3 cm stem cutting treated with clothianidin, thiamethoxiam, imidacloprid, dinotefuran, nitenpyram, acetamiprid or thiacloprid planted one week after treatment, four weeks after treatment
[17] = Example 8, 3 cm stem cutting treated with kresoxim-methyl, azoxystrobin or another listed strobilurin fungicide, soil surface spray, four weeks after treatment
[18] = Example 6, 3 cm stem cutting treated with clothianidin, thiamethoxiam, imidacloprid, dinotefuran, nitenpyram, acetamiprid or thiacloprid, soil surface spray, four weeks after treatment

C#CCN1C(=O)COc2cc(F)c(N3C(=O)C4=C(CCCC4)C3=O)cc21 [Flumioxazin, flumioxazin]
herbicidal activity against Amaranthus retroflexus (Amaranthus retroflexus [1]): the controlling effect on a weed can be confirmed
herbicidal activity against Amaranthus retroflexus (Amaranthus retroflexus [2]): the controlling effect on a weed can be confirmed
phytotoxicity (sugar cane [3]; [13]): significant phytotoxicity on sugar cane is not observed
herbicidal activity against Amaranthus retroflexus (Amaranthus retroflexus [4]): the controlling effect on a weed can be confirmed
herbicidal activity against Amaranthus retroflexus (Amaranthus retroflexus [5]): the control effect on a weed can be confirmed
herbicidal activity against Amaranthus retroflexus (Amaranthus retroflexus [6]): the controlling effect on a weed can be confirmed
phytotoxicity (sugar cane [7]; [14]): significant phytotoxicity on sugar cane is not observed
phytotoxicity (sugar cane [8]; [15]): significant phytotoxicity on sugar cane is not observed
phytotoxicity (sugar cane [9]; [16]): significant phytotoxicity on sugar cane is not observed
phytotoxicity (sugar cane [10]; [17]): significant phytotoxicity on sugar cane is not observed
phytotoxicity (sugar cane [11]; [18]): significant phytotoxicity on sugar cane is not observed
herbicidal activity against Amaranthus retroflexus (Amaranthus retroflexus [12]): the controlling effect on a weed can be confirmed

C#CCN1C(=O)COc2cc(F)c(-n3c(=O)n(C)c(=S)n(C)c3=O)cc21 [compound of the formula (I)]
herbicidal activity against Amaranthus retroflexus (Amaranthus retroflexus [1]): the controlling effect on a weed can be confirmed
herbicidal activity against Amaranthus retroflexus (Amaranthus retroflexus [2]): the controlling effect on a weed can be confirmed
phytotoxicity (sugar cane [3]; in vivo): significant phytotoxicity on sugar cane is not observed
herbicidal activity against Amaranthus retroflexus (Amaranthus retroflexus [4]): the controlling effect on a weed can be confirmed
herbicidal activity against Amaranthus retroflexus (Amaranthus retroflexus [5]): the control effect on a weed can be confirmed
herbicidal activity against Amaranthus retroflexus (Amaranthus retroflexus [6]): the controlling effect on a weed can be confirmed
phytotoxicity (sugar cane [7]; in vivo): significant phytotoxicity on sugar cane is not observed
phytotoxicity (sugar cane [8]; [15]): significant phytotoxicity on sugar cane is not observed
phytotoxicity (sugar cane [9]; in vivo): significant phytotoxicity on sugar cane is not observed
phytotoxicity (sugar cane [10]; [17]): significant phytotoxicity on sugar cane is not observed
phytotoxicity (sugar cane [11]; in vivo): significant phytotoxicity on sugar cane is not observed
herbicidal activity against Amaranthus retroflexus (Amaranthus retroflexus [12]): the controlling effect on a weed can be confirmed

CC(C)Oc1cc(-n2nc(C(C)(C)C)oc2=O)c(Cl)cc1Cl [oxadiazon]
herbicidal activity against Amaranthus retroflexus (Amaranthus retroflexus [1]): the controlling effect on a weed can be confirmed
herbicidal activity against Amaranthus retroflexus (Amaranthus retroflexus [2]): the controlling effect on a weed can be confirmed
phytotoxicity (sugar cane [3]; in vivo): significant phytotoxicity on sugar cane is not observed
herbicidal activity against Amaranthus retroflexus (Amaranthus retroflexus [4]): the controlling effect on a weed can be confirmed
herbicidal activity against Amaranthus retroflexus (Amaranthus retroflexus [5]): the control effect on a weed can be confirmed
herbicidal activity against Amaranthus retroflexus (Amaranthus retroflexus [6]): the controlling effect on a weed can be confirmed
phytotoxicity (sugar cane [7]; in vivo): significant phytotoxicity on sugar cane is not observed
phytotoxicity (sugar cane [8]; in vivo): significant phytotoxicity on sugar cane is not observed
phytotoxicity (sugar cane [9]; in vivo): significant phytotoxicity on sugar cane is not observed
phytotoxicity (sugar cane [10]; in vivo): significant phytotoxicity on sugar cane is not observed
phytotoxicity (sugar cane [11]; in vivo): significant phytotoxicity on sugar cane is not observed
herbicidal activity against Amaranthus retroflexus (Amaranthus retroflexus [12]): the controlling effect on a weed can be confirmed

CC(C)N(C)S(=O)(=O)NC(=O)c1cc(-n2c(=O)cc(C(F)(F)F)n(C)c2=O)c(F)cc1Cl [Saflufenacil, saflufenacil]
herbicidal activity against Amaranthus retroflexus (Amaranthus retroflexus [1]): the controlling effect on a weed can be confirmed
herbicidal activity against Amaranthus retroflexus (Amaranthus retroflexus [2]): the controlling effect on a weed can be confirmed
phytotoxicity (sugar cane [3]; [13]): significant phytotoxicity on sugar cane is not observed
herbicidal activity against Amaranthus retroflexus (Amaranthus retroflexus [4]): the controlling effect on a weed can be confirmed
herbicidal activity against Amaranthus retroflexus (Amaranthus retroflexus [5]): the control effect on a weed can be confirmed
herbicidal activity against Amaranthus retroflexus (Amaranthus retroflexus [6]): the controlling effect on a weed can be confirmed
phytotoxicity (sugar cane [7]; [14]): significant phytotoxicity on sugar cane is not observed
phytotoxicity (sugar cane [8]; [15]): significant phytotoxicity on sugar cane is not observed
phytotoxicity (sugar cane [9]; [16]): significant phytotoxicity on sugar cane is not observed
phytotoxicity (sugar cane [10]; [17]): significant phytotoxicity on sugar cane is not observed
phytotoxicity (sugar cane [11]; [18]): significant phytotoxicity on sugar cane is not observed
herbicidal activity against Amaranthus retroflexus (Amaranthus retroflexus [12]): the controlling effect on a weed can be confirmed

Cc1nn(-c2cc(NS(C)(=O)=O)c(Cl)cc2Cl)c(=O)n1C(F)F [sulfentrazone]
herbicidal activity against Amaranthus retroflexus (Amaranthus retroflexus [1]): the controlling effect on a weed can be confirmed
herbicidal activity against Amaranthus retroflexus (Amaranthus retroflexus [2]): the controlling effect on a weed can be confirmed
phytotoxicity (sugar cane [3]; in vivo): significant phytotoxicity on sugar cane is not observed
herbicidal activity against Amaranthus retroflexus (Amaranthus retroflexus [4]): the controlling effect on a weed can be confirmed
herbicidal activity against Amaranthus retroflexus (Amaranthus retroflexus [5]): the control effect on a weed can be confirmed
herbicidal activity against Amaranthus retroflexus (Amaranthus retroflexus [6]): the controlling effect on a weed can be confirmed
phytotoxicity (sugar cane [7]; in vivo): significant phytotoxicity on sugar cane is not observed
phytotoxicity (sugar cane [8]; in vivo): significant phytotoxicity on sugar cane is not observed
phytotoxicity (sugar cane [9]; in vivo): significant phytotoxicity on sugar cane is not observed
phytotoxicity (sugar cane [10]; in vivo): significant phytotoxicity on sugar cane is not observed
phytotoxicity (sugar cane [11]; in vivo): significant phytotoxicity on sugar cane is not observed
herbicidal activity against Amaranthus retroflexus (Amaranthus retroflexus [12]): the controlling effect on a weed can be confirmed
